Patent US20200256880A1, “Neuronal Assay Method Involving Calcineurin” (The Broad Institute, Inc., priority 2017, published 2020)

Legend:
[1] = system: S469 CNAα phosphorylation in rat hippocampal neurons; experiment: Pharmacological blockade of glutamate receptors and L-type Ca channels, with or without bicuculline; phospho-S469 CNAα at synapsin-marked synapses; type: cell-based; details: baseline and bicuculine-induced; localized to synapses marked by synapsin
Excerpt: (A) Rat hippocampal neurons grown in 96-well plates were stimulated with various plasticity induction paradigms or modulators of neuronal activity levels, fixed and stained for phospho-S469 CNAα and MAP2, and imaged. (B) Quantification of phospho-S469 CNAα levels within MAP2-positive dendrites in wells shown in (A). (C) Quantification of total CNAα levels within MAP2-positive dendrites in wells shown in (A). (D) Rat hippocampal neurons were pretreated with vehicle, DNQX, nifedipine, […], or a combination of all three (with group listed in this order from left to right in panel (D)) prior and after treatment with bicuculline. Neurons were then fixed and stained for phospho-S469 CNAα and synapsin and imaged on a Phenix® (Perkin Elmer) imaging system, a high content imaging system. Shown is the phospho-S469 CNAα levels localized to synapses marked by synapsin. Bic=bicuculine. *≤0.05 compared to control sample, **<0.01, ***<0.001, and ****<0.0001 compared to control sample. For FIG. 7D, statistics were derived by comparing the pharmacological condition with the equivalent control condition, either vehicle or bicucculine treated.
Next, the dependency of S469 CNAα phosphorylation was assessed when neurons were treated by blockade of glutamate receptors and L-type Ca channels using pharmacological blockers. […]

[2] = system: phospho-S469 CNAα in rat hippocampal neurons; type: cell-based
[3] = system: phosphorylated RII (pRII) peptide; experiment: Calcineurin phosphatase enzyme assay with pRII peptide; type: biochemical, human; details: recombinant CNAα/CNB1 holoenzyme, pRII substrate, in the presence of CaM
Protocol: To investigate whether phosphorylation of CNAα Ser469 modifies calcineurin phosphatase activity, a phosphomimetic mutant was generated by replacing S469 with E469 in purified, recombinant human calcineurin. The S469E mutant or wild type of CNAα was co-expressed with CNB1 subunit in E. coli and co-purified. Both mutant and wild type show similar expression level and purity. Their concentrations were quantified by OD280 and CaM titration.
Enzyme activity was then assessed. CN enzymatic parameters for wild-type and S469E mutant proteins were measured using phosphorylated RII (pRII) peptide in a buffer containing 50 mM HEPES (pH=7.0), 1 mM CaCl2, 1 mM MnCl2, 0.5 mM dithiothreitol (DTT), and 0.1 mg/ml bovine serum albumin (BSA). Phosphate product release was monitored at 620 nm on SpectraMax_i3x spectrophotometer (Molecular Devices) with a 96-well plate-based calcineurin phosphatase assay kit (Abcam). Briefly, CN (40 nM) and CM (200 nM) were pre-mixed in 2× assay buffer. The reaction was initiated by addition of 25 μl pRII substrate (in H2O) to equal volume of CN/CaM mixture. The final concentration of pRII used ranged from 12 μM to 750 μM. Reaction was stopped by green quench reagent after 20 minutes. Km was determined using nonlinear regression of the Michaelis-Menten equation.

Compound	levels of phospho-S469 CNAα within dendrites [2]	also measured
NC(CCCP(=O)(O)O)C(=O)O (stereo not drawn) [AP5]	–	S469 CNAα phosphorylation [1]: most strongly reducing
N[C@H](C(=O)O)c1cc(O)cc(O)c1 [DHPG, dihydroxypheylglycine]	significantly and robustly increased	–
CN[C@H](CC(=O)O)C(=O)O [NMDA, N-methyl-D-asparatate]	significantly and robustly increased	–
NC1=N[C@H](O)[C@H]2[C@H]3O[C@]4(O)O[C@@H]([C@@H](O)[C@@]2(N1)[C@@H]4O)[C@]3(O)CO [TTX, tetrodotoxin]	decrease	–
CC(C)NCC(O)c1ccc(O)c(O)c1 (stereo not drawn) [isoproterenol]	significantly and robustly increased	–
S469E: phosphomimetic mutant of recombinant human CNAα (S469 replaced with E469) co-expressed with CNB1	–	Km [3]: 256 µM
